Assay results from the NIST ThermoML archive (doi:10.1016/j.tca.2004.11.015).
Numbers after ± are expanded uncertainties.

Settings: 101.33 kPa, Liquid, Vibrating tube method

NCCO [2-aminoethan-1-ol]
Settings	mass density [kg/m3]
281.15 K	1025.55 ± 0.52
283.15 K	1023.99 ± 0.52
285.15 K	1022.42 ± 0.52
287.15 K	1020.84 ± 0.52
289.15 K	1019.26 ± 0.52
291.15 K	1017.68 ± 0.52
293.15 K	1016.1 ± 0.52
295.15 K	1014.52 ± 0.51
297.15 K	1012.94 ± 0.51
299.15 K	1011.35 ± 0.51
301.15 K	1009.76 ± 0.51
303.15 K	1008.17 ± 0.51
305.15 K	1006.58 ± 0.51
307.15 K	1004.99 ± 0.51
309.15 K	1003.4 ± 0.51
311.15 K	1001.8 ± 0.51
313.15 K	1000.21 ± 0.51
315.15 K	998.6 ± 0.51
317.15 K	997 ± 0.51
319.15 K	995.4 ± 0.5
321.15 K	993.79 ± 0.5
323.15 K	992.19 ± 0.5
325.15 K	990.58 ± 0.5
327.15 K	988.96 ± 0.5
329.15 K	987.34 ± 0.5
331.15 K	985.72 ± 0.5
333.15 K	984.1 ± 0.5
335.15 K	982.48 ± 0.5
337.15 K	980.85 ± 0.5
339.15 K	979.21 ± 0.5
341.15 K	977.58 ± 0.5
343.15 K	975.94 ± 0.5
345.15 K	974.3 ± 0.5
347.15 K	972.65 ± 0.49
349.15 K	970.99 ± 0.49
351.15 K	969.34 ± 0.49
353.15 K	967.68 ± 0.49

CO [methanol]
Settings	mass density [kg/m3]
283.15 K	800.67 ± 0.15
288.15 K	795.99 ± 0.15
293.15 K	791.29 ± 0.15
298.15 K	786.58 ± 0.15
303.15 K	781.86 ± 0.16
308.15 K	777.1 ± 0.16
313.15 K	772.32 ± 0.16
318.15 K	767.52 ± 0.16
323.15 K	762.67 ± 0.17
328.15 K	757.77 ± 0.17
333.15 K	752.83 ± 0.17
